Measurements taken from BigSolDB 2.1.

Conditions: in water

SMILES: NCCS(=O)(=O)O
- solubility (mole fraction) (278.05 K): 0.00796
- solubility (mole fraction) (281.25 K): 0.00932
- solubility (mole fraction) (288.75 K): 0.0119
- solubility (mole fraction) (289.85 K): 0.0128
- solubility (mole fraction) (298.15 K): 0.017
- solubility (mole fraction) (305.35 K): 0.0203
- solubility (mole fraction) (308.25 K): 0.0213
- solubility (mole fraction) (310.95 K): 0.0233
- solubility (mole fraction) (314.85 K): 0.0261
- solubility (mole fraction) (318.35 K): 0.0291
- solubility (mole fraction) (321.55 K): 0.0321
- solubility (mole fraction) (331.75 K): 0.0403
- solubility (mole fraction) (340.95 K): 0.0477
- solubility (mole fraction) (345.15 K): 0.0526
- solubility (mole fraction) (350.25 K): 0.0585
- solubility (mole fraction) (353.55 K): 0.0646
